Columns and labels:
[1] = Antiinvasive activity against mouse 26-L5 cells after 6 to 8 hrs using hematoxylin/eosin dye by Matrigel assay; assay type: functional, cell-based
[2] = Cytotoxicity against mouse 26-L5 cells at <0.3 ug/ml after 24 hrs; assay type: cell-based

| SMILES | IC50 [1] [nM] | Activity [2] |
| --- | --- | --- |
| Cc1c(O)c(CCC(C)C)c2c(c1O)C(=O)c1cccc(O)c1C2=O [LUPINACIDIN A] | 210 | – |
| CCCCc1c(O)c(C)c(O)c2c1C(=O)c1c(O)cccc1C2=O [LUPINACIDIN B] | 920 | – |
| CC[C@H](C)CCc1c(O)c(C)c(O)c2c1C(=O)c1c(O)cccc1C2=O [LUPINACIDIN C] | 540 | Non-toxic |
